Experimental data from paper PMC3549034 (Cancer research, 2012).
pIC50: −log10 of the molar value.

Target: Aurora B (Homo sapiens, UniProt Q96GD4)
Format: biochemical

Aurora B, sequence (Q96GD4 whole entry): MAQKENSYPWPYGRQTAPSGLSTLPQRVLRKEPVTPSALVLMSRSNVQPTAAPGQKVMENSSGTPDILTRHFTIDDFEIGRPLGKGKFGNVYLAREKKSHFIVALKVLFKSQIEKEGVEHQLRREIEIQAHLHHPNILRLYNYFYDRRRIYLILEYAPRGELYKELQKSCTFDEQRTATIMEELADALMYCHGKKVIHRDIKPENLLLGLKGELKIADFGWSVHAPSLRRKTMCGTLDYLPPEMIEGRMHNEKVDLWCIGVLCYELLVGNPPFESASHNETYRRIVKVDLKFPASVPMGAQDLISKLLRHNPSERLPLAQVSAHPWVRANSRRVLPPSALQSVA

- pIC50: ~7.00
Compound: O=C(/C=C/c1ccc2c(c1)OCO2)/C=C1/C(=O)Nc2ccccc21 [HOI-07, (E)-3-((E)-4-(benzo[d][1,3]dioxol-5-yl)-2-oxobut-3-en-1-ylidene)indolin-2-one]
